According to patent US20090239926A1, “METHODS FOR THE TREATMENT OF PSORIASIS OR PSORIATIC ARTHRITIS USING CYCLOPROPYL-N-CARBOXAMIDE” (priority 2008, published 2009):

Molecular target: T1, PDE6 from bovine retinal rod outer segments (Bos taurus, UniProt P11541+P23439)
T1 construct: PDE6 from bovine retinal rod outer segments; from tissue; host or cells: bovine retinal rod outer segments
Experiment: Specificity: PDE6
Type: biochemical
Procedure: The specificity of Compound A for PDE4 was assessed by testing at a single concentration (10 μM) against bovine PDE1, human PDE2, PDE3 and PDE5 from human platelets, and PDE6 from bovine retinal rod outer segments.

T1 sequence (P11541 2-856 limits assumed): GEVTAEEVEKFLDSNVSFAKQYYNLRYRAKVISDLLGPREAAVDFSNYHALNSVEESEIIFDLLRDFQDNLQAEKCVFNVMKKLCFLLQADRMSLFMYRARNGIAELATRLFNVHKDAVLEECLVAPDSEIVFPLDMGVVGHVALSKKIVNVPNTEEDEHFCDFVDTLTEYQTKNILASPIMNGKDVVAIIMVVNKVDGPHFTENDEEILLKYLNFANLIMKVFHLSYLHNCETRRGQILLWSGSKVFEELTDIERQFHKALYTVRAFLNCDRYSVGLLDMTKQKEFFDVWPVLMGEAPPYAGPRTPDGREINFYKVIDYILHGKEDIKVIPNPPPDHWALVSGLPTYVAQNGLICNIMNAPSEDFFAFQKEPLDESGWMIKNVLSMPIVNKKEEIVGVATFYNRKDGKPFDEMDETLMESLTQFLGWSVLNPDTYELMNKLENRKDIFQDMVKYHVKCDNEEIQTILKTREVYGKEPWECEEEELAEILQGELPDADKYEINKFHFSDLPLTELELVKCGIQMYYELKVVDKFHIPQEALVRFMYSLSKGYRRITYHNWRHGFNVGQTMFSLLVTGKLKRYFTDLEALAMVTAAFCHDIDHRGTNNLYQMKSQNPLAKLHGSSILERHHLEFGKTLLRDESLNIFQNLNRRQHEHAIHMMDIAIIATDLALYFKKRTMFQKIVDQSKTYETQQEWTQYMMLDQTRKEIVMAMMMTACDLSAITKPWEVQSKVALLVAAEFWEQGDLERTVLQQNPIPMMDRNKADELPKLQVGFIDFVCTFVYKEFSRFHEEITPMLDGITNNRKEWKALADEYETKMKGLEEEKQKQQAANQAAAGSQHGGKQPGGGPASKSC
T1 sequence (P23439 2-850 limits assumed): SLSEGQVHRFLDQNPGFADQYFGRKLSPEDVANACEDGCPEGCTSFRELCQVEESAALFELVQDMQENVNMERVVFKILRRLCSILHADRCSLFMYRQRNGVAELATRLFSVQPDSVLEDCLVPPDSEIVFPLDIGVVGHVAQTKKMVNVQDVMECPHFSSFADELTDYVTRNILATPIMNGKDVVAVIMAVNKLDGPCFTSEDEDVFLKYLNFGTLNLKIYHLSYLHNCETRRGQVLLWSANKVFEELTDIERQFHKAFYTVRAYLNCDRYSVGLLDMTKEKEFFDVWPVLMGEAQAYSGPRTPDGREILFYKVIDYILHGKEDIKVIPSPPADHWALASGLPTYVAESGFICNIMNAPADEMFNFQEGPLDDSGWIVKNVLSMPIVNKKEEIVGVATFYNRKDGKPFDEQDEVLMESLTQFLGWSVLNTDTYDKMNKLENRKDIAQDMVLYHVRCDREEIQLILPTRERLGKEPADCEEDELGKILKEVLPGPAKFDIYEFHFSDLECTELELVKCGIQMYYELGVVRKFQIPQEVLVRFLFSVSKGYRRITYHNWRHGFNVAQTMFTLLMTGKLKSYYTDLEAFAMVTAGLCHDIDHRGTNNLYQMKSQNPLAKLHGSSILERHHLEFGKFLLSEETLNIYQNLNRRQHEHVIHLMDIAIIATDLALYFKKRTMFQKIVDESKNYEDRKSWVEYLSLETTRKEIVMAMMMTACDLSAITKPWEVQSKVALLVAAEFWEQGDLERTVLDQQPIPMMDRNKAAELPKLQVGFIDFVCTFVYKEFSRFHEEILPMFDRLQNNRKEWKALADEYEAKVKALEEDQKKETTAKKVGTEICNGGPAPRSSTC

`CCOc1cc([C@@H](CS(C)(=O)=O)N2Cc3cccc(NC(=O)C4CC4)c3C2=O)ccc1OC` [Compound A, cyclopropyl-N-{2-[(1S)-1-(3-ethoxy-4-methoxyphenyl)-2-(methylsulfonyl)ethyl]-3-oxoisoindoline-4-yl}carboxamide] gave an inhibition at 10 µM of 17%.
